Reference: patent US20260174875A1 (Novo Nordisk A/S, priority 2023, published 2026)
Like-named read-outs stand apart in the source and are kept apart here. Numbered stars: 1 amine (or outer) side, 2 acyl side, 3 side chain; on linkers, the order of the positions; unused ones are H or OH. Square brackets hold non-standard residues; d marks the D form. Side chains are listed from the residue outwards. * marks the point of attachment. Chem. 22 = C20 diacid gamma-Glu, O=C(O)CCCCCCCCCCCCCCCCCCC(=O)N[C@@H](CCC(=O)*)C(=O)O; C20 diacid = O=C(O)CCCCCCCCCCCCCCCCCCC(=O)*; C18 diacid = O=C(O)CCCCCCCCCCCCCCCCC(=O)*; C16 diacid = O=C(O)CCCCCCCCCCCCCCC(=O)*; γGlu = O=C(O)[C@H](CCC(=O)[*:2])N[*:1]; Chem. 28 = not defined here; AEEA = NCCOCCOCC(=O)O; Aib = CC(C)(N)C(=O)O

T1: human GIP receptor (hGIPR) (Homo sapiens, UniProt P48546)
T1 construct: expressed in transfected cells
T1 sequence (P48546 22-466): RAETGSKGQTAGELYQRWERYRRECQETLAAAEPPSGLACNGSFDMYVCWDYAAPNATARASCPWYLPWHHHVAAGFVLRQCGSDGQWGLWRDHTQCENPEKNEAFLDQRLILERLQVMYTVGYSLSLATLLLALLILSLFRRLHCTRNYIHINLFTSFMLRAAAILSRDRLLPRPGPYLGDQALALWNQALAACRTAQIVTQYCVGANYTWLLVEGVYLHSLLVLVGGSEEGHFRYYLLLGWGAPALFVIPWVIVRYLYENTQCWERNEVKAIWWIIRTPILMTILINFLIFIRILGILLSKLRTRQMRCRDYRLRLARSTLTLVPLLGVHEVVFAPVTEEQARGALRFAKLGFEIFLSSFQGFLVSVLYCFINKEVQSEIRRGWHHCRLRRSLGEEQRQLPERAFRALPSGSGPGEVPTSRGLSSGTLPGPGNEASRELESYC

T2: human GIP receptor (human, UniProt P48546 22-466)
T2 sequence (looked up): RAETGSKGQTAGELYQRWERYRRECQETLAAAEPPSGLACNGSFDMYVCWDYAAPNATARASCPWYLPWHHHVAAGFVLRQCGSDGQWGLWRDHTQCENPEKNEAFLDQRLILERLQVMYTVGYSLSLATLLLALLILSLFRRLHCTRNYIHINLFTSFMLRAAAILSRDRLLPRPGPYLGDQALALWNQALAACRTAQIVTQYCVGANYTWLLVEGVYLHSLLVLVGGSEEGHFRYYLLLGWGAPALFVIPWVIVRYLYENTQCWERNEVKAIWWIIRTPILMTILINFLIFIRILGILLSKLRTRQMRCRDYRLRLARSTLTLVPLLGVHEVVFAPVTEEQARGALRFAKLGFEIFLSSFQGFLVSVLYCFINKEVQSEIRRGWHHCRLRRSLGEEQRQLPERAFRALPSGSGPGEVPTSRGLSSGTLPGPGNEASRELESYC

T3: human amylin-3(a) receptor (human, UniProt P30988 25-474; O60896 24-148)
T3 sequence (looked up) 1: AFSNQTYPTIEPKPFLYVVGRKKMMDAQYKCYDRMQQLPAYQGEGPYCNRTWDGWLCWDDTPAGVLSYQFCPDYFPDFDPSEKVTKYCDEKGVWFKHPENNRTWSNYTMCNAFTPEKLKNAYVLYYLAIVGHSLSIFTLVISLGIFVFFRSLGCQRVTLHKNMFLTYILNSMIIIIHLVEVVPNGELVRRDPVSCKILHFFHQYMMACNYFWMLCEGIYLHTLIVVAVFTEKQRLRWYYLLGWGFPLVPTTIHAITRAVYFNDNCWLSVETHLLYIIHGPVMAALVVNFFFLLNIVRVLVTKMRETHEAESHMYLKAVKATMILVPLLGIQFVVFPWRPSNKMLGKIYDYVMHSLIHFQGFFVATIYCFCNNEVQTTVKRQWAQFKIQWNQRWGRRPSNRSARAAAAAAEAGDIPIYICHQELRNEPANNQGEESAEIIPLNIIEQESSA
T3 sequence (looked up) 2: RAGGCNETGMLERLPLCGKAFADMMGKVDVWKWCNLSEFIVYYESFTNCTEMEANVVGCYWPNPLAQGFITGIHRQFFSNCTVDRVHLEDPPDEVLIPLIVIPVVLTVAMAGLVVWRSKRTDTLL


Tests used:
[1] = target: T1, human GIP receptor (hGIPR); test: GIP receptor assay, method A (CRE-luciferase reporter, BHK cells); assay type: cell-based
Procedure, shortened: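 BHK cells co-expressing hGIPR and a CRE-luciferase reporter, plated 21-23 h before assay, stimulated 3 h at 37 °C with compounds (7-point 10-fold titration, duplicates) in ovalbumin-containing DMEM buffer with or without 1% HSA final. Luminescence read; EC50 (pM) from four-parameter logistic fit with shared Hill slope.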

[2] = target: T4, human GLP-1 receptor (hGLP-1R) (Homo sapiens, UniProt P43220); test: GLP-1 receptor assay, method A (CRE-luciferase reporter, BHK cells); assay type: cell-based
T4 construct: expressed in transfected cells
Procedure, shortened: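 Albumin sensitivity is tested by running the assay both without HSA and with 1% (w/v) HSA. Frozen BHK cells carrying hGLP-1R and CRE-driven luciferase are incubated with compound for 3 hours at 37° C. Luminescence is then read with steadylite Plus.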

[3] = target: T5, human amylin receptor (hAMYR3) (Homo sapiens, UniProt O60896+P30988); test: Amylin receptor assay, method A (CRE-luciferase reporter, BHK cells); assay type: cell-based
T5 construct: host or cells: BHK cells (Hollex-1 line expressing hCTR(a) and CRE-Luc), further transfected with human RAMP3

human GIP receptor = target: T2, human GIP receptor; test: cell-based or functional assay
human GLP-1 receptor = human GLP-1 receptor (human, UniProt P43220 24-463); test: cell-based or functional assay
[4] = target: T3, human amylin-3(a) receptor; test: cell-based or functional assay
[5] = hGIPR Potency, 1% HSA, EC50, method A, in the presence of 1% HSA
[6] = method A, absence of HSA, read-out: hGIPR Potency, no HSA, EC50
[7] = hGLP-1R Potency, 1% HSA, EC50, method A, in the presence of 1% HSA
[8] = method A, absence of HSA, read-out: hGLP-1R Potency, no HSA, EC50
[9] = hAMYR3 Potency, 1% HSA, EC50, method A, in the presence of 1% HSA
[10] = method A, absence of HSA, read-out: hAMYR3 Potency, no HSA, EC50

T4 sequence (P43220 24-463): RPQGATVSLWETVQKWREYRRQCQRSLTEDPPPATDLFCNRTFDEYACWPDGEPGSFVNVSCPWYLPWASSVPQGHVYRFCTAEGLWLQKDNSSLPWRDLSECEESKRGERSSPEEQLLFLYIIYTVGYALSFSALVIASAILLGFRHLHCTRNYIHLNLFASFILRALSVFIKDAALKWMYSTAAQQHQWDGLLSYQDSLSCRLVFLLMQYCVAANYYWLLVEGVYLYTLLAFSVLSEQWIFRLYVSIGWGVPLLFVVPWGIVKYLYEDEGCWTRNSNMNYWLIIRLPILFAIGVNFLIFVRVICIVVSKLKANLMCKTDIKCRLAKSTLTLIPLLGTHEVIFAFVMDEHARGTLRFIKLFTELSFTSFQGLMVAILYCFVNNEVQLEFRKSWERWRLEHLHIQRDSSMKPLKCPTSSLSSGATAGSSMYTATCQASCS

Row | Molecule | EC50 [1, 5] [nM] | EC50 [1, 6] [nM] | EC50 [2, 7] [nM] | EC50 [2, 8] [nM] | EC50 [3, 9] [nM] | EC50 [3, 10] [nM] | EC50 ([1]; hGIPR Potency, no HSA, EC50, method A, absence of HSA) [nM] | EC50 ([2]; hGLP-1R Potency, no HSA, EC50, method A, absence of HSA) [nM] | EC50 ([3]; hAMYR3 Potency, no HSA, EC50, method A, absence of HSA) [nM] | hGIPR Potency, no HSA, EC50 [pM] (human GIP receptor) | hGLP-1R Potency, no HSA, EC50 [pM] (human GLP-1 receptor) | hAMYR3 Potency, no HSA, EC50 [pM] [4] [pM]
1 | H[Aib]HGTFTSDYSILLEEQAAREFIEWLLAGGPSSGALAQTLAQTLASHLSTAQTQRLSAELHK([AEEA-AEEA-γGlu-C18 diacid])LATLPRTETGSGSP-NH2 [Compound 51] | 0.0619 | 0.00837 | 0.0322 | 0.00768 | 0.0571 | 0.00619 |  |  |  |  |  | 
2 | Y[Aib]EGTFTSDYSILLEEQAAREFIEWLLAGGPSK([AEEA-AEEA-γGlu-C18 diacid])GEASELSTAALGRLSAELHRLATLPRTETGSGSP-NH2 [Compound 19] |  | 0.00944 |  | 0.0579 |  | 0.00424 |  |  |  |  |  | 
3 | H[Aib]HGTFTSDYSILLEEQAAREFIEWLLAGGPSSGEASHLSTAALGRLSAELHK([AEEA-AEEA-γGlu-C18 diacid])LATLPRTETGSGSP-NH2 [Compound 88] | 0.0404 | 0.00568 | 0.0488 | 0.00412 | 0.102 | 0.0037 |  |  |  |  |  | 
4 | H[Aib]HGTFTSDYSILLEEQAAREFIEWLLAGGPSK([AEEA-AEEA-γGlu-C18 diacid])GAPPPSGGGASELSTAALGRLSAELHRLATLPRTETGSGSP-NH2 [Compound 86] | 0.122 | 0.00511 | 0.13 | 0.00669 | 0.0584 | 0.00331 |  |  |  |  |  | 
5 | Y[Aib]EGTFTSDYSILLEEQAAREFIEWLLAGGPSSGALAQTLAQTLASHLSTAQTQRLSAELHK([AEEA-AEEA-γGlu-C16 diacid])LATLPRTETGSGSP-NH2 [Compound 59] | 0.0272 | 0.00772 | 0.0397 | 0.0506 | 0.0242 | 0.00385 |  |  |  |  |  | 
6 | Y[Aib]EGTFTSDYSILLEEQAAREFIEWLLAGGPSK([AEEA-AEEA-γGlu-C18 diacid])GAPPEASELSTAALGRLSAELHELATLPRTETGSGSP-NH2 [Compound 33] |  | 0.00311 |  | 0.0321 |  | 0.0103 |  |  |  |  |  | 
7 | Y[Aib]EGTFTSDYSILLEEQAAREFIEWLLAGGPSSGAPPPSGGGEASHLSTAQTQRLSAELHK([AEEA-AEEA-γGlu-C18 diacid])LATLPRTETGSGSP-NH2 [Compound 49] | 0.0167 | 0.00436 | 0.11 | 0.0333 | 0.106 | 0.00185 |  |  |  |  |  | 
8 | Y[Aib]EGTFTSDYSILLEEQAAREFIEWLLAGGPSK([AEEA-AEEA-γGlu-C18 diacid])GALAQTLFVNQASELSTAALGRLSAELHELATLPRTETGSGSP-NH2 [Compound 24] |  | 0.00234 |  | 0.0515 |  | 0.00424 |  |  |  |  |  | 
9 | Y[Aib]EGTFTSDYSILLEEQAAREFIEWLLAGGPSSGAGQAPGQAPGASHLSTAQTQRLSAELHRLATLPK([AEEA-AEEA-γGlu-C20 diacid])TETGSGSP-NH2 [Compound 76] | 0.0111 | 0.00282 | 0.0636 | 0.0199 | 0.43 | 0.00311 |  |  |  |  |  | 
10 | Y[Aib]EGTFTSDYSILLEEQAAREFIEWLLAGGPSSGEASHLSTAQTQRLSAELHRLATLPK([AEEA-AEEA-γGlu-C18 diacid])TETGSGSP-NH2 [Compound 81] | 0.0158 | 0.00331 | 0.0514 | 0.016 | 0.188 | 0.00407 |  |  |  |  |  | 
11 | H[Aib]HGTFTSDYSILLEEQAAREFIEWLLAGGPSK([γGlu-C18 diacid])GAPPPSGGGEASHLSTAQTARLSAELHRLADLPRTETGSGSP-NH2 [Compound 112] | 0.321 |  | 0.336 |  | 0.269 |  | 0.00242 | 0.00437 | 0.00365 |  |  | 
12 | Compound 42 (peptide) peptide: Y[Aib]EGTFTSDYSILLEEQAAREFIEWLLAGGPSSK(Chem. 22)APPPSGGGEASELSTAALGRLSAELHRLATLPRTETGSGSP-NH2 |  |  |  |  |  |  |  |  |  | 8.01 | 61.3 | 3.42
13 | Compound 34 (reading uncertain) peptide: Y[Aib]EGTFTSDYSILLEEQAAREFIEWLLAGGPSK(Chem. 28)GEASHLSTAQTQRLSAELHELATLPRTETGSGSP-NH2 |  |  |  |  |  |  |  |  |  | 1.7 | 21.7 | 6.81
14 | Compound 40 (reading uncertain; also: VARIANT 50 Aib (position 50 is T), mods: Aib at 2) peptide: Y[Aib]EGTFTSDYSILLEEQAAREFIEWLLAGGPSK(Chem. 28)GGGGEGGGEGEASHLSTAQTQRLSAELHELATLPRTETGSGSP-NH2 |  |  |  |  |  |  |  |  |  | 1.63 | 23.3 | 5.49
15 | Compound 33 (reading uncertain) peptide: Y[Aib]EGTFTSDYSILLEEQAAREFIEWLLAGGPSK(Chem. 28)GAPPEASELSTAALGRLSAELHELATLPRTETGSGSP-NH2 |  |  |  |  |  |  |  |  |  | 3.11 | 32.1 | 10.3
16 | Compound 41 (peptide) peptide: Y[Aib]EGTFTSDYSILLEEQAAREFIEWLLAGGPSK(Chem. 22)GAPPPSGGGEASELSTAALGRLSAELHRLADLPRTETGSGSP-NH2 |  |  |  |  |  |  |  |  |  | 5.02 | 40.8 | 6.72
17 | Compound 35 (reading uncertain) peptide: Y[Aib]EGTFTSDYSILLEEQAAREFIEWLLAGGPSK(Chem. 28)GEASHLSTAQTARLSAELHELATLPRTETGSGSP-NH2 |  |  |  |  |  |  |  |  |  | 1.97 | 23.3 | 4.21
18 | Compound 44 (reading uncertain) peptide: H[Aib]HGTFTSDYSILLEEQAAREFIEWLLAGGPSK(Chem. 28)GALAQTLGTNEASELSTAALGRLSAELHRLATLPRTETGSGSP-NH2 |  |  |  |  |  |  |  |  |  | 6.3 | 3.68 | 3.8
